# Data as given in ChEMBL document CHEMBL1201862, “PubChem BioAssay data set” (2004).
#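 96-well plates; 48 h exposure; 5 concentrations. Endpoints by linear interpolation between flanking doses. Not reached: highest tested concentration assigned. GI50 = concentration required for 50% inhibition of growth.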 Calls of active or inactive are those of the source. Rule as the data show it: active = GI50 up to about 1.1 µM and inactive = higher.
# Assays:
# Test in all cases: NCI anticancer screen, dose series, 48 h
# [1] = test system: A498
# [2] = test system: BT-549
# [3] = test system: COLO 205
# [4] = test system: HT-29
# [5] = test system: K562
# [6] = test system: LOX IMVI
# [7] = test system: MCF7
# [8] = test system: MOLT-4
# [9] = test system: Malme-3M
# [10] = test system: NCI-H460
# [11] = test system: OVCAR-3
# [12] = test system: OVCAR-4
# [13] = test system: PC-3
# [14] = test system: SF-268
# [15] = test system: SF-295
# [16] = test system: SNB-19
# [17] = test system: SNB-75
# [18] = test system: SW-620
# [19] = test system: T47D
# [20] = test system: UACC-257
Structure (SMILES),GI50 [1],GI50 [2],GI50 [3],GI50 [4],GI50 [5],GI50 [6],GI50 [7],GI50 [8],GI50 [9],GI50 [10],GI50 [11],GI50 [12],GI50 [13],GI50 [14],GI50 [15],GI50 [16],GI50 [17],GI50 [18],GI50 [19],GI50 [20]
C[C@@]12C[C@@H](c3ccccc3O1)N1CCCSC1=N2,> 100 µM (inactive),> 100 µM (inactive),> 100 µM (inactive),> 100 µM (inactive),> 100 µM (inactive),> 100 µM (inactive),> 100 µM (inactive),> 100 µM (inactive),> 100 µM (inactive),> 100 µM (inactive),> 100 µM (inactive),> 100 µM (inactive),> 100 µM (inactive),> 100 µM (inactive),> 100 µM (inactive),> 100 µM (inactive),> 100 µM (inactive),> 100 µM (inactive),> 100 µM (inactive),> 100 µM (inactive)
CC(C)[S+]1C2=C(CC(C)(C)CC2=O)[N-]c2ccccc21 (stereo not given),> 100 µM (inactive),> 100 µM (inactive),> 100 µM (inactive),> 100 µM (inactive),> 100 µM (inactive),> 100 µM (inactive),> 100 µM (inactive),> 100 µM (inactive),> 100 µM (inactive),> 100 µM (inactive),> 100 µM (inactive),> 100 µM (inactive),> 100 µM (inactive),> 100 µM (inactive),> 100 µM (inactive),> 100 µM (inactive),> 100 µM (inactive),> 100 µM (inactive),> 100 µM (inactive),> 100 µM (inactive)
Brc1ccc2[nH]cc(-c3csc(-c4c[nH]c5ccc(Br)cc45)n3)c2c1,2.13 µM (inactive),5.75 µM (inactive),1.61 µM (inactive),1.7 µM (inactive),1.77 µM (inactive),1.69 µM (inactive),2.7 µM (inactive),1.63 µM (inactive),1.56 µM (inactive),1.73 µM (inactive),2.45 µM (inactive),2.26 µM (inactive),1.97 µM (inactive),2.05 µM (inactive),2.48 µM (inactive),2.88 µM (inactive),2.39 µM (inactive),1.84 µM (inactive),2.44 µM (inactive),2.92 µM (inactive)
CN1CCN(c2c(Cl)cc(Cl)c3[nH]c4ccccc4c(=O)c23)CC1,3.96 µM (inactive),16.1 µM (inactive),4.17 µM (inactive),3.22 µM (inactive),3.66 µM (inactive),3.64 µM (inactive),1.43 µM (inactive),1.18 µM (inactive),1.96 µM (inactive),11.2 µM (inactive),10.2 µM (inactive),11.7 µM (inactive),6.38 µM (inactive),2.86 µM (inactive),5.85 µM (inactive),6.4 µM (inactive),9.91 µM (inactive),3.82 µM (inactive),9.23 µM (inactive),8.45 µM (inactive)
COc1ccc(OC(=O)N2C/C(=C\c3ccccc3)C(=O)/C(=C/c3ccccc3)C2)cc1,2.33 µM (inactive),2.24 µM (inactive),7.74 µM (inactive),1.27 µM (inactive),0.824 µM (active),0.962 µM (active),0.697 µM (active),1.49 µM (inactive),11.1 µM (inactive),5.42 µM (inactive),6.85 µM (inactive),8.17 µM (inactive),3.66 µM (inactive),3.67 µM (inactive),2.99 µM (inactive),4.62 µM (inactive),7.83 µM (inactive),1.03 µM (active),16 µM (inactive),3.74 µM (inactive)
C=CCSC1=N/C(=C\c2ccccc2)C(=O)N1CC=C,23.1 µM (inactive),40.7 µM (inactive),41.6 µM (inactive),23.6 µM (inactive),3.48 µM (inactive),26.4 µM (inactive),27.8 µM (inactive),2.7 µM (inactive),47 µM (inactive),41.6 µM (inactive),> 47.2 µM (inactive),40.6 µM (inactive),24.8 µM (inactive),6.85 µM (inactive),58.1 µM (inactive),> 100 µM (inactive),33.3 µM (inactive),49.7 µM (inactive),29.2 µM (inactive),33.2 µM (inactive)
Cc1cccc2c(N)c3cccc(C(=O)NCCCNCCN)c3nc12,11.4 µM (inactive),14.6 µM (inactive),6.37 µM (inactive),3.13 µM (inactive),12.9 µM (inactive),7.11 µM (inactive),0.679 µM (active),0.155 µM (active),5.57 µM (inactive),1.1 µM (active),20.2 µM (inactive),1.87 µM (inactive),14.3 µM (inactive),0.124 µM (active),4.45 µM (inactive),3.09 µM (inactive),0.946 µM (active),8.43 µM (inactive),7.85 µM (inactive),16.6 µM (inactive)
